Assay results published in patent publication US11155576B2, “Synthetic peptides, enzymatic formation of pericellular hydrogels/nanofibrils, and methods of use” (BRANDEIS UNIVERSITY, priority 2014, dated 2021).

Tests used:
HeLa cells [1] = assay: LC-MS composition of pericellular hydrogel/nanofibrils and suspension medium of HeLa cells; assay type: in vitro ADME, human
[2] = Cell viability assay (MTT), Ect1/E6E7; assay type: cell-based; conditions: human, Ect1/E6E7 cells, read-out: Cells remaining viable
Experimental: (§1) Cells in exponential growth phase were seeded in a 96 well plate at a concentration of 2×10^4 cells/well. The cells were allowed to attach to the wells for 24 hours at 37° C., 5% CO2. The culture medium was removed and 100 μL culture medium containing compounds (immediately diluted from fresh prepared stock solution of 10 mM) at gradient concentrations (0 μM as the control) was placed into each well. After culturing at 37° C., 5% CO2 for 48 hours, each well was added by 10 μL of 5 mg/mL MTT (3-(4,5-dimethylthiazoL-2-yl)-2,5-diphenyltetrazolium bromide), and the plated cells were incubated in the dark for 4 hours. 100 μL 10% SDS with 0.01M HCl was added to each well to stop the reduction reaction and to dissolve the purple. After overnight incubation of the cells at 37° C., the OD at 595 nm of the solution was measured in a microplate reader. Data represent the mean±standard deviation of three independent experiments.

[3] = Cell viability assay (MTT), HeLa; assay type: cell-based, human; conditions: human, HeLa cells, 48 hour incubation
Experimental: as §1

MES-SA/dx5 cells = assay: Pericellular hydrogel/nanonets on MES-SA/dx5 cells (Congo red/DAPI); assay type: cell-based, human; conditions: 280 μM, 12 hours
Experimental: FIG. 11 illustrates overlaid and 3D stacked z-scan images of Congo red and DAPI stained MES-SA and MES-SA/Dx5 cells treated with either 280 μM D-2a (upper panel) or medium alone (control, lower panel) for 12 hours. Scale bar=[…]. White dots outline the cells.
(§2) Cells in exponential growth phase were seeded in a glass bottomed culture chamber at 2×10^4 cells/well. Cells were allowed to attach for 24 hours at 37° C., 5% CO2. The culture medium was removed, and replaced with culture medium containing D-2a at 280 μM. Following 12 hours of incubation, cells were washed 3 times with PBS prior to being stained with 0.1 mg/mL Congo red and 0.6 μM DAPI in PBS buffer (30 minutes at 37° C. in the dark). Next, cells were rinsed three times with PBS, and then kept in PBS for imaging.

HeLa cells [4] = assay: Viability of cells after cold shock and nanonet collection; assay type: cell-based, human; conditions: 4 hour incubation with D-2a in FBS-free MEM, cold shock and medium removal
Experimental: FIGS. 33A-33B show the cell compatibility of the use of nanonets/hydrogel for collecting cancer secretome. FIG. 33A is a Western blot showing the amount of tubulins in CM collected after 24 hours of incubation or pericellular nanonets collected after 3 to 9 hours of incubation. […] Both CM and nanonets were collected in FBS-free MEM. […] Two trials, each has three repeats.
In another experiment the viability of cells following nanonet collection was evaluated following 4 hour incubation with D-2a and cold shock.

Ect1/E6E7 cells = assay: Pericellular hydrogelation on Ect1/E6E7 cells; assay type: cell-based, human; conditions: 560 μM, prolonged incubation time of 48 hours
Experimental: An 11.2 mM (8.09 mg/mL) stock solution of D-2a was prepared in ddH2O. The pH was adjusted to 7.4 using 1N NaOH. 2×10^5 cells in exponential growth phase were seeded in 35 mm Petri dish with 1 mL complete culture medium. Following overnight incubation, the medium was replaced with 1 mL of medium containing D-2a (diluted from the stock solution immediately prior to use). Petri dishes were incubated at 37° C. for two hours. Next, dishes were removed from the incubator and titled on a bench to visualize the pericellular hydrogel. Prior to co-incubation with phosphatase inhibitors, cells were washed three times with medium containing Pierce phosphatase inhibitor cocktail (Thermo) (contains sodium floride, sodium orthovanadate, sodium pyrophosphate, and beta-glycerophosphate). Next, 1 mL of medium containing both the inhibitor cocktail and D-2a was applied to the cells.
Ect1/E6E7 cells (immortalized normal human cervical epithelial cells, which have same tissue and organ origins as HeLa cells) were treated with the same procedure as described for HeLa cells above. […] The difference of hydrogel/nanonets formation by D-2a conversion to D-2b on HeLa cells and Ect1/E6E7 cells agrees with the notion that HeLa cells have higher levels of phosphatase activity than Ect1/E6E7 cells (FIG. 9).

[5] = test system: Alkaline-phosphatase (“ALP”); conditions: D-2a 0.20 wt %/2.77 mM
Description: […] Scale bar=100 nm.
Napthalene capped tripeptide precursor molecule D-2a and hydrogelator molecule D-2b, synthesized according to Yang et al. (Small 3:558-562 (2007), which is hereby incorporated by reference in its entirety), are comprised of the tripeptide D-Phe-D-Phe-D-Tyr (FIG. 1B). The D-Tyr of D-2a is phosphorylated (FIG. 1B).

HeLa cells [6] = assay: Cell adhesion assay; assay type: cell-based, human; conditions: 560 μM, trypsinized HeLa cells, at 4 hours
Experimental: Cells in exponential growth phase were detached using 0.25% trypsin-EDTA. After neutralizing trypsin by addition of complete culture medium, the cells were collected by centrifuge (1000 rpm, 3 min). The cell pellet was suspended by addition of culture medium to a concentration of 4×10^5 cells/mL. 1 mL of the cell suspension was mixed with 1 mL of 2×D-2a or D-2b containing culture media. The resulting solutions were added into 96 well plate at 100 μL/well. After the desired time of incubation at 37° C., 5% CO2, the solution was gently removed, and then 100 μL of culture medium and 10 μL of 5 mg/mL MTT were added to each well. Following 4 hour incubation in the dark, 100 μL of 10% SDS with 0.01M HCl was added to each well to stop the reduction reaction and to dissolve the purple. After incubation of the cells at 37° C. for overnight, the viability was measured. Data represent the mean±standard deviation of three independent experiments.

HeLa cells [7] = assay: Confocal microscopy, Congo red/DAPI staining, HeLa; assay type: cell-based, human; conditions: 280 μM, 12 hours
Experimental: as §2
Pericellular nanofibrils and cellular nuclei can be visualized using Congo red and DAPI, respectively (Kapuscinski, Biotech. Histochem. 70:220-233 (1995); Binder et al., Angew. Chem. Int. Ed. 45:7324-7328 (2006), each of which is hereby incorporated by reference in its entirety).

[8] = HeLa cells incubated with precursor at 560 μM at 37° C. for 12 hours

## O=C(Cc1ccc2ccccc2c1)N[C@H](Cc1ccccc1)C(=O)N[C@H](Cc1ccccc1)C(=O)N[C@H](Cc1ccc(OP(=O)(O)O)cc1)C(=O)O [D-2a, Nap-D-Phe-D-Phe-D-Tyr(PO3H2)]
HeLa cells [1]; [8]
  D-2b in pericellular hydrogel: 2053.9 µM
  D-2b in suspension medium: 502.5 µM
HeLa cells [1]; hydrogel of FIG. 2A, HeLa monolayers treated with 500 μM D-2a as printed
  Concentration of D-2b in the hydrogel (LC-MS): approximately 2.05 mM
[2]
  viability at 48 h, 280 µM: > 60%
[3]
  viability at 48 h, 280 µM: ~10%
MES-SA/dx5 cells
  Pericellular hydrogel/nanonets formation: forms pericellular hydrogel/nanonets
HeLa cells [4]
  Cell viability after nanonet collection: hardly affected cell viability
Ect1/E6E7 cells
  Hydrogel formation on Ect1/E6E7 cells: hydrogels hardly form
[5]
  Hydrogel formation after ALP-catalyzed dephosphorylation: self assembles to form the nanofibrils of a hydrogel
HeLa cells [6]
  Cells reattached to surface: less than 5%
HeLa cells [7]
  Congo red fluorescence on cells: fluorescence (red) that outlines the cell shape
  DAPI entry into cells: DAPI is unable to enter
